# Measurements published in patent publication US20130131321A1, “LIGANDS FOR ANTIBODY AND Fc-FUSION PROTEIN PURIFICATION BY AFFINITY CHROMATOGRAPHY” (GRAFFINITY PHARMACEUTICALS GMBH, priority 2010, published 2013).
# Biological target: T1, Bevacizumab (Homo sapiens, UniProt P01857)
# T1 construct: fused on or other part: humanised anti-VEGF-A VH domain N-terminal of the gamma-1 constant region (engineered, no UniProt entry)
# Test: Microtiter plate chromatography of resins, Bevacizumab whole IgG (bound, yield, selectivity)
# Type: binding, humanized
smiles,measurement,setting,value
"COc1ccc(NC(=O)c2cc(-c3ccco3)n(C)n2)cc1C(=O)NCCCN [Ligand L1, 5-[5-(2-Furyl)-1-methylpyrazol-3-yl]carboxamido-2-methoxybenzoic acid N-(3-aminopropyl)amide]",Bevacizumab IgG Bound (%),fraction of whole IgG Bevacizumab bound to resin,100%
same,Bevacizumab IgG Yield (%),mass of whole IgG Bevacizumab eluted / mass injected,91%
